Assay [1] relates to U87MG cells. As to the kind of experiment: Cytotoxicity assay (cell viability, CellTiter 96 Aqueous MTS). The class given is cell-based. As to conditions: Homo sapiens, U-87 MG, 72 h, 72 hours incubation, starting concentration 50 uM, 9 point half log dilution, average where tested repeatedly. An outline of the steps: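 U87MG cells plated at 7×10^3 cells/well overnight, then treated 72 h with 9-point half-log dilutions from a 50 uM starting concentration. Viability measured with CellTiter 96 Aqueous MTS; IC50 calculated from viability.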

Assay [2] deals with tubulin. As to the kind of experiment: Tubulin polymerization assay (Cytoskeleton, Inc. inhibitor screening protocol). The class given is biochemical. As to conditions: 3 μM, 37C, compared to DMSO control. How it is done:
Example 4. Tubulin Polymerization Assay
Compounds described herein were tested in a tubulin polymerization inhibition assay using the general manufacturer's protocol for inhibitor screening (Cytoskeleton, Inc. BK01 IP). DMSO was used as a negative control, and vinblastine was tested as a positive control. All compounds were tested at a concentration of 3 μM, and incubation was carried out at 37C for 60 minutes. Results were calculated as a percent inhibition (compared to DMSO control) after 60 min of incubation, the results of which are shown in Table 3.

Bounds are passed on as bounds.

For `Cc1ncccc1C(=O)NCCCc1ccc(-c2ccccc2F)cc1` [Compound 81, N-(3-(2′-fluoro-[1,1′-biphenyl]-4-yl)propyl)-2-methylnicotinamide], the IC50 in assay [1] is below 500 nM. In addition, the “% Tubulin Polymerization at 60 min” value in assay [2] is listed as “A (A is < 20%)”.

Take `Nc1ncc(C(=O)NCCCc2ccc(-c3ccccc3F)cc2)cn1` [Compound 96]: the IC50 in assay [1] was below 500 nM. The “% Tubulin Polymerization at 60 min” value in assay [2] is on record as “A (A is < 20%)”.

In the case of `COc1ccc(CC(=O)NCCCc2ccc(-c3ccccc3F)cc2)cc1` [Compound 101, N-(3-(2′-fluoro-[1,1′-biphenyl]-4-yl)propyl)-2-(4-methoxyphenyl)acetamide], in assay [1], the IC50 is below 500 nM. In addition, in assay [2], the “% Tubulin Polymerization at 60 min” value is recorded as “C (C is 41-60%)”.

In turn, `O=C(NCCCc1ccc(-c2ccccc2F)cc1)c1ccc2[nH]cnc2c1` [Compound 136, N-(3-(2′-fluoro-[1,1′-biphenyl]-4-yl)propyl)-1H-benzo[d]imidazole-5-carboxamide] displayed an IC50 in assay [1] below 500 nM. Moreover, the “% Tubulin Polymerization at 60 min” value in assay [2] is given as “A (A is < 20%)”.

`Cc1ncc(C(=O)NCCCc2ccc(-c3ccccc3F)cc2)s1` [Compound 138, N-(3-(2′-fluoro-[1,1′-biphenyl]-4-yl)propyl)-2-methylthiazole-5-carboxamide] showed an IC50 in assay [1] below 500 nM. The “% Tubulin Polymerization at 60 min” value in assay [2] was “A (A is < 20%)”.

For `O=C(CCCc1ccc(-c2ccc3[nH]c(=O)ccc3c2)cc1)Nc1cccnc1` [Compound 207, 4-(4-(2-oxo-1,2-dihydroquinolin-6-yl)phenyl)-N-(pyridin-3-yl)butanamide], in assay [1], the IC50 is below 500 nM. Besides, the “% Tubulin Polymerization at 60 min” value in assay [2] is listed as “D (D is 61-80%)”.

For `O=C(CCCc1ccc(-c2ccc3cnccc3c2)cc1)Nc1cccnc1` [Compound 214, 4-(4-(isoquinolin-6-yl)phenyl)-N-(pyridin-3-yl)butanamide], the IC50 in assay [1] is below 500 nM. In assay [2], the “% Tubulin Polymerization at 60 min” value is given as “F (F is 81-100%)”.

For `Cc1ccc(C(=O)NCCCc2ccc(-c3ccc4c(cnn4C)c3)cc2)cn1` [Compound 226, 6-methyl-N-(3-(4-(1-methyl-1H-indazol-5-yl)phenyl)propyl)nicotinamide], in assay [1], the IC50 is below 500 nM. Moreover, the “% Tubulin Polymerization at 60 min” value in assay [2] was “C (C is 41-60%)”.

Turning to `Cc1cc(C(=O)NCCCc2ccc(-c3ccc4[nH]ncc4c3C)cc2)no1` [Compound 230, 5-methyl-N-(3-(4-(4-methyl-1H-indazol-5-yl)phenyl)propyl)isoxazole-3-carboxamide], in assay [1], the IC50 is below 500 nM. For the same compound, in assay [2], the “% Tubulin Polymerization at 60 min” value is reported as “C (C is 41-60%)”.

In turn, `Cn1ncc2cc(-c3ccc(CCCNC(=O)c4cnc(N)nc4)cc3)ccc21` [Compound 232, 2-amino-N-(3-(4-(1-methyl-1H-indazol-5-yl)phenyl)propyl)pyrimidine-5-carboxamide] had an IC50 in assay [1] below 500 nM. The “% Tubulin Polymerization at 60 min” value in assay [2] is given as “C (C is 41-60%)”.

Compound `Cc1cc(C(=O)NCCCc2ccc(-c3cnc4[nH]ccc4c3)cc2)n(C)n1` [Compound 233, N-(3-(4-(1H-pyrrolo[2,3-b]pyridin-5-yl)phenyl)propyl)-1,3-dimethyl-1H-pyrazole-5-carboxamide] came in with an IC50 in assay [1] below 500 nM. Further, the “% Tubulin Polymerization at 60 min” value in assay [2] is “A (A is < 20%)”.

In assay [1], `Cc1cc(C(=O)NCCCc2ccc(-c3ccc4ncccc4c3)cc2)no1` [Compound 239, 5-methyl-N-(3-(4-(quinolin-6-yl)phenyl)propyl)isoxazole-3-carboxamide] gave an IC50 below 500 nM. In assay [2], the “% Tubulin Polymerization at 60 min” value was “C (C is 41-60%)”.

For `Cc1ccc(C(=O)NCCCc2ccc(-c3ccc4[nH]ncc4c3C)cc2)cn1` [Compound 243, 6-methyl-N-(3-(4-(4-methyl-1H-indazol-5-yl)phenyl)propyl)nicotinamide], the IC50 in assay [1] is below 500 nM. Moreover, the “% Tubulin Polymerization at 60 min” value in assay [2] is recorded as “A (A is < 20%)”.

With `O=C(Nc1ccc2[nH]ccc2c1)N1CCN(c2ccc(-c3ccccc3F)cc2)CC1` [Compound 280, 4-(2′-fluoro-[1,1′-biphenyl]-4-yl)-N-(1H-indol-5-yl)piperazine-1-carboxamide], the 50% inhibitory concentration (IC50) in assay [1] is below 500 nM. For the same compound, the “% Tubulin Polymerization at 60 min” value in assay [2] is recorded as “F (F is 81-100%)”.

As to `Cc1ncccc1C(=O)NCCCc1ccc(-c2ccc3c(c2)OCC(=O)N3)cc1` [Compound 314, 2-methyl-N-(3-(4-(3-oxo-3,4-dihydro-2H-benzo[b][1,4]oxazin-7-yl)phenyl)propyl)nicotinamide], the IC50 in assay [1] is below 500 nM.

With `Cc1ccc(C(=O)NCCCc2ccc(-c3ccc4[nH]c(=O)ccc4c3)cc2)cn1` [Compound 315, 6-methyl-N-(3-(4-(2-oxo-1,2-dihydroquinolin-6-yl)phenyl)propyl)nicotinamide], in assay [1], the IC50 was below 500 nM.

As to `COc1ccc(CC(=O)NCCCc2ccc(-c3cnc4[nH]ccc4c3)cc2)cc1` [Compound 316, N-(3-(4-(1H-pyrrolo[2,3-b]pyridin-5-yl)phenyl)propyl)-2-(4-methoxyphenyl)acetamide], the IC50 in assay [1] is below 500 nM.

Take `COc1cccc(-c2ccc(CCCNC(=O)c3cccnc3C)cc2)c1F` [Compound 317, N-(3-(2′-fluoro-3′-methoxy-[1,1′-biphenyl]-4-yl)propyl)-2-methylnicotinamide]: in assay [1], the IC50 was below 500 nM.

As to `CC[C@]1(O)C[C@@H]2CN(CCc3c([nH]c4ccccc34)[C@@](C(=O)OC)(c3cc4c(cc3OC)N(C)[C@H]3[C@@](O)(C(=O)OC)[C@H](OC(C)=O)[C@]5(CC)C=CCN6CC[C@]43[C@@H]65)C2)C1` [Vinblastine, vinblastine, reference compound], the “% Tubulin Polymerization at 60 min” value in assay [2] is given as “A (A is < 20%)”.

(Values after US12247010B2, “Tubulin inhibitors” (LIN BIOSCIENCE PTY LTD., priority 2017, dated 2025).)
